Where a name gives a salt, the structure may show the parent alone.
Columns and labels:
[1] = target: T1, full-length proMMP9(1-707) (SEQ ID NO:1) (Homo sapiens, UniProt P14780, R574P); assay: ProMMP9/MMP3 DQ Gelatin Activation Assay; type: biochemical; conditions: 20 nM proMMP9, 10 nM MMP3, DQ gelatin; read-out: ProMMP9/MMP3 DQ gel Activation Assay, IC50
T1 construct: made in house; host or cells: HEK293 (proMMP9, secreted); E. coli (MMP3)
Protocol: Compounds were assessed for inhibition of proMMP9 activation by catalytic MMP3 using a quenched fluorescein gelatin substrate (DQ gelatin, Invitrogen D12054) that fluoresces upon cleavage by activated MMP9. The assay buffer employed was 50 mM Hepes, pH 7.5, 10 mM CaCl2, 0.05% Brij-35. DMSO was included at a final concentration of 0.2%, arising from the test compound addition. […] Test compounds in DMSO were diluted 250-fold in assay buffer at 4× the final concentration. The reaction volume was 12 μL, and all reactions were conducted in triplicate. […] The plate was sealed and incubated for 30 min at 37° C. […] Immediately following the 30 min incubation, 4 μL of 40 μg/ml DQ gelatin substrate was added (freshly diluted in assay buffer), and incubated for 10 min at room temperature. The reaction was stopped by the addition of 4 μL of 50 mM EDTA, and the resulting activity associated with catalytic MMP9 was determined at 485 nm excitation, 535 nm emission using an Envision fluorescent reader (Perkin Elmer). Reactivity of residual MMP3 towards DQ gelatin was minimal under these conditions. Percent inhibition of test compounds were determined from suitable positive (DMSO only in assay buffer) and negative (EDTA added prior to reaction initiation) controls. Plots of % inhibition vs. test compound concentration were fit to a four-parameter logistics equation (GraphPad Prism® software) for determination of IC50.

[2] = target: T2, proMMP9(20-445;ΔFnII) (SEQ ID NO:6) (Homo sapiens, UniProt P14780, DEL216-390); assay: ThermoFluor binding assay with proMMP9(20-445;ΔFnII); conditions: pH 7.0
T2 construct: start methionine (N); made in house; host or cells: E. coli BL21(DE3) RIL
T2 sequence (P14780 with tags, fused parts or gaps DEL216-390): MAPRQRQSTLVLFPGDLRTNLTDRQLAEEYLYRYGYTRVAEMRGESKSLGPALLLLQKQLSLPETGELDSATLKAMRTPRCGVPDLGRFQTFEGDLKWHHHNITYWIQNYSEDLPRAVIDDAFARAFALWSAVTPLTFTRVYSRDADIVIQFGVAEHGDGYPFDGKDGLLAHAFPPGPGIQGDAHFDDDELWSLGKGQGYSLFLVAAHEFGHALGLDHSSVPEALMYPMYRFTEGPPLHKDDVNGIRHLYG
Method in brief: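 proMMP9(20-445;ΔFnII) at 2.8 μM with 50 μM 1,8-ANS in 50 mM HEPES pH 7.0, 100 mM NaCl, 0.001% Tween-20, 2.5 mM MgCl2, 300 μM CaCl2; compounds serially diluted in DMSO. Heated 40–90 °C at 1 °C/min, fluorescence read at 500±25 nm. Tm fit by standard equations; binding fit using DSC/TF-derived thermodynamic parameters.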

[3] = target: T3, proMMP13(1-268) (SEQ ID NO:7) (Homo sapiens, UniProt P45452); assay: ThermoFluor binding assay with proMMP13(1-268); set-up: 6xHis (C); made in house; conditions: pH 7.0
Method in brief: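 Thermal shift binding with 3.5 μM protein and 25 μM 1,8-ANS in 50 mM HEPES pH 7.0, 100 mM NaCl, 0.001% Tween-20, 2.5 mM MgCl2, 300 μM CaCl2. Samples were heated 40 to 90 °C at 1 °C/min, fluorescence read at 500 nm. Tm shifts across an 11-point DMSO dilution series were fitted with DSC-derived thermodynamic parameters.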

[4] = target: T4, proMMP9(67-444;ΔFnII) (SEQ ID NO:5) (Homo sapiens, UniProt P14780, DEL216-390); assay: ThermoFluor binding assay with proMMP9(67-444;ΔFnII); conditions: pH 7.0
T4 construct: start methionine (N); made in house; host or cells: E. coli BL21(DE3) RIL
T4 sequence (P14780 with tags, fused parts or gaps DEL216-390): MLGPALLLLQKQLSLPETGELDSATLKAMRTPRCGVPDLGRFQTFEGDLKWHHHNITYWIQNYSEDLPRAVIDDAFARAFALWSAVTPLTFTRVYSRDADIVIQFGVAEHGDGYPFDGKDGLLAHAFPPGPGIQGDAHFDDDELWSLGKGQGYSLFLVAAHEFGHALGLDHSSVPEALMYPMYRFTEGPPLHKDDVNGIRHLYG
Method in brief: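 Thermal shift binding with 3.5 μM proMMP9(67-444;ΔFnII) and 50 μM 1,8-ANS in 50 mM HEPES pH 7.0, 100 mM NaCl, 2.5 mM MgCl2, 300 μM CaCl2, 0.001% Tween-20, with serially diluted compound. Heated 40 to 90° C at 1° C/min; fluorescence-derived Tm fitted using DSC/ThermoFluor thermodynamic parameters.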

[5] = target: T1, full-length proMMP9(1-707) (SEQ ID NO:1); assay: proMMP9/MMP3 P126 Activation Assay; type: biochemical; conditions: 20 nM proMMP9, 20 nM MMP3, 80 min 37° C.
Protocol: The reaction volume was 50 μL. […] Reactivity of residual MMP3 towards P-126 substrate was minimal under these conditions.

[6] = target: T3, proMMP13(1-268) (SEQ ID NO:7); assay: ProMMP13/Plasmin P126 Activation Assay; type: biochemical; set-up: 6xHis (C); made in house; host or cells: HEK293 (transient, secreted); conditions: 8 nM proMMP13, 16 nM plasmin, 40 min 37° C.
Protocol: On the day of assay, proMMP13(1-268) (SEQ ID NO:7) purified from HEK293 cells and plasmin were diluted to 160 nM and 320 nM, respectively, in assay buffer. The reaction volume was 50 μL. […] The plate was sealed and incubated for 40 min at 37° C. […] Plasmin was not reactive towards P-126 substrate under these conditions.

T1 sequence (P14780 20-707 R574P): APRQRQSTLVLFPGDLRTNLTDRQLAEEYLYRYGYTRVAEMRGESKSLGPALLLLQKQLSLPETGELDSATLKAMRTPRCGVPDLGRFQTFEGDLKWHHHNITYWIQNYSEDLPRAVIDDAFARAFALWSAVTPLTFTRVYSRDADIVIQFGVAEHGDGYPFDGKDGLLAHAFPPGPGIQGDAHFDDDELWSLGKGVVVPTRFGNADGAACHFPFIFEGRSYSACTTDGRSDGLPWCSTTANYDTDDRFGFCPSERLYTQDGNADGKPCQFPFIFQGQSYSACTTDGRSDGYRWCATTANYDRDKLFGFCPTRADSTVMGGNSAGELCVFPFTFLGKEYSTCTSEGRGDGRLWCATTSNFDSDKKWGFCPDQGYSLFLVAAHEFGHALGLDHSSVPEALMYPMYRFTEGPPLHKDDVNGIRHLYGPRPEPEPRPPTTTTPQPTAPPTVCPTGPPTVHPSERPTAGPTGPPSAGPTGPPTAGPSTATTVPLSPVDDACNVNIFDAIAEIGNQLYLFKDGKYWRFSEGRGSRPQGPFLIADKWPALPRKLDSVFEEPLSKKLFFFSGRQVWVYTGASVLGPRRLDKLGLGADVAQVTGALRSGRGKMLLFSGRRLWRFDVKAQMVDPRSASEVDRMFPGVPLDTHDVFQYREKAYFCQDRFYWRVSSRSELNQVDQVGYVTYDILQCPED

SMILES	IC50 [1]	Kd [2]	Kd [3]	Kd [4]	IC50 [5]	IC50 [6]
COc1ccc(C)cc1Nc1nc(-c2sc(NC(C)=O)nc2C)cs1 [Example 11, N-[2-(2-Methoxy-5-methyl-phenylamino)-4′-methyl-[4,5′]bithiazolyl-2′-yl]-acetamide]	9 µM	9.8 µM	30 µM	1.1 µM		
Cc1nc(CN2CCCCC2)sc1-c1csc(Nc2cc(C(N)=O)ccc2OC(C)C)n1 [Example 128, 4-Isopropoxy-3-(4′-methyl-2′-piperidin-1-ylmethyl-[4,5′]bithiazolyl-2-ylamino)-benzamide.TFA]		0.5 µM	5.2 µM	2.7 µM	1.3 µM	
Cc1nc(CN(C)C)sc1-c1csc(Nc2cc(C(N)=O)ccc2OC(C)C)n1 [Example 129, 3-(2′-Dimethylaminomethyl-4′-methyl-[4,5′]bithiazolyl-2-ylamino)-4-isopropoxy-benzamide.TFA]		0.72 µM	5.1 µM	4.7 µM	1.2 µM	
Cc1nc(CN2CCCC2)sc1-c1csc(Nc2cc(C(N)=O)ccc2OC(C)C)n1 [Example 130, 4-Isopropoxy-3-(4′-methyl-2′-pyrrolidin-1-ylmethyl-[4,5′]bithiazolyl-2-ylamino)-benzamide.TFA]		0.55 µM	4.9 µM	3 µM	0.7 µM	
Cc1nc(CN2CCN(C)CC2)sc1-c1csc(Nc2cc(C(N)=O)ccc2OC(C)C)n1 [Example 131, 4-Isopropoxy-3-[4′-methyl-2′-(4-methyl-piperazin-1-ylmethyl)-[4,5′]bithiazolyl-2-ylamino]-benzamide.TFA]		0.77 µM	5.6 µM	3.3 µM	0.73 µM	
Cc1nc(S(C)(=O)=O)sc1-c1csc(Nc2cc(C(N)=O)ccc2OC(C)C)n1 [Example 132, 4-Isopropoxy-3-(2′-methanesulfonyl-4′-methyl-[4,5′]bithiazolyl-2-ylamino)-benzamide]		4.3 µM	11 µM	21 µM	0.72 µM	
Cc1nc(CN(C)CCN(C)C)sc1-c1csc(Nc2cc(C(N)=O)ccc2OC(C)C)n1 [Example 133, 3-(2′-{[(2-Dimethylamino-ethyl)-methyl-amino]-methyl}-4′-methyl-[4,5]bithiazolyl-2-ylamino)-4-isopropoxy-benzamide.TFA]		0.97 µM	3.8 µM	4 µM	0.66 µM	
COc1ccc(-c2cn[nH]c2)cc1Nc1nc(-c2sc(C)nc2C)cs1 [Example 138, (2′,4′-Dimethyl-[4,5′]bithiazolyl-2-yl)-[2-methoxy-5-(1H-pyrazol-4-yl)-phenyl]-amine]		1.7 µM	0.83 µM	0.48 µM	0.73 µM	
COc1ccc(-c2ccnn2C)cc1Nc1nc(-c2sc(C)nc2C)cs1 [Example 139]		75 µM	8.1 µM	11 µM	5.2 µM	
C=Cc1ccc(OC)c(Nc2nc(-c3sc(C)nc3C)cs2)c1 [Example 140, (2′,4′-Dimethyl-[4,5′]bithiazolyl-2-yl)-(2-methoxy-5-vinyl-phenyl)-amine]		> 95 µM	26 µM	45 µM	5.5 µM	
COc1ccc(-c2cccnc2)cc1Nc1nc(-c2sc(C)nc2C)cs1 [Example 141, (2′,4′-Dimethyl-[4,5′]bithiazolyl-2-yl)-(2-methoxy-5-pyridin-3-yl-phenyl)-amine]		> 95 µM	4.3 µM	15 µM	~12 µM	
COc1ccc(-c2nccs2)cc1Nc1nc(-c2sc(C)nc2C)cs1 [Example 142, (2′,4′-Dimethyl-[4,5′]bithiazolyl-2-yl)-(2-methoxy-5-thiazol-2-yl-phenyl)-amine.TFA]		> 95 µM	6.7 µM	58 µM	11 µM	
COc1ccc(-c2cncn2C)cc1Nc1nc(-c2sc(C)nc2C)cs1 [Example 143, (2′,4′-Dimethyl-[4,5′]bithiazolyl-2-yl)-[2-methoxy-5-(3-methyl-3H-imidazol-4-yl)-phenyl]-amine]		62 µM	6 µM	16 µM	~6 µM	
Cc1nc(C)c(-c2csc(Nc3cc(S(N)(=O)=O)ccc3OC(F)(F)F)n2)s1 [Example 144, 3-(2′,4′-Dimethyl-[4,5′]bithiazolyl-2-ylamino)-4-trifluoromethoxy-benzenesulfonamide.HCl]		1 µM	3.6 µM	2 µM	1.6 µM	
CC(=O)Nc1nc(C)c(-c2csc(Nc3cccc4cccnc34)n2)s1 [Example 146, N-[4′-Methyl-2-(quinolin-8-ylamino)-[4,5′]bithiazolyl-2′-yl]-acetamide.TFA]	5.9 µM	4.6 µM		1.3 µM		
COc1ncccc1Nc1nc(-c2sc(NC(C)=O)nc2C)cs1 [Example 147, N-[2-(2-Methoxy-pyridin-3-ylamino)-4′-methyl-[4,5′]bithiazolyl-2′-yl]-acetamide.TFA]	20 µM	12 µM		7.6 µM		
CC(=O)Nc1nc(C)c(-c2csc(Nc3cccnc3O)n2)s1 [Example 148, N-[2-(2-Hydroxy-pyridin-3-ylamino)-4′-methyl-[4,5′]bithiazolyl-2′-yl]-acetamide.HBr]	6 µM	> 8 µM		> 8 µM		
CC(=O)Nc1nc(C)c(-c2csc(Nc3cccc4ccccc34)n2)s1 [Example 149, N-[4′-Methyl-2-(naphthalen-1-ylamino)-[4,5′]bithiazolyl-2′-yl]-acetamide.HCl]	27 µM	5 µM	40 µM	4.4 µM		
CC(C)Oc1ccc(C(N)=O)cc1Nc1nc(-c2sc(N)nc2C(F)(F)F)cs1 [Example 150, 3-(2′-Amino-4′-trifluoromethyl-[4,5′]bithiazolyl-2-ylamino)-4-isopropoxy-benzamide]		0.16 µM	0.22 µM	1.3 µM	1.2 µM	
Cc1nc(C2CCN(C)CC2)sc1-c1csc(Nc2cc(C(N)=O)ccc2OC(C)C)n1 [Example 157, 4-Isopropoxy-3-((4′-methyl-2′-(1-methylpiperidin-4-yl)-[4,5′-bithiazol]-2-yl)amino)benzamide.TFA]					0.033 µM	0.86 µM

From patent US20120129842A1, “BISTHIAZOLE INHIBITORS OF PRO-MATRIX METALLOPROTEINASE ACTIVATION” (priority 2010, published 2012)
